This is an account of results in PubChem BioAssay (NCI).

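Dose response: 5 concentrations. Exposure: 48 h. Format: 96-well plates. Endpoint: linear interpolation; highest concentration if not reached. At the GI50, growth is halved. TGI: total growth inhibition.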

Holding throughout (assay): NCI-60 cell line screen, 48 h
In test [1] the test system is HCT-116 colon.
For test [2], the system named is RPMI-8226 leukemia.
Test [3] has as its system HCT-15 colon.
Test [4] relates to U251 CNS.
Test [5] concerns OVCAR-3 ovarian.
Test [6] deals with HT29 colon.
For test [7], the system named is TK-10 renal.
The test system of test [8] is COLO 205 colon.
Test [9] relates to T-47D breast.
Test [10] concerns DU-145 prostate.

In the case of `CN(c1ccccc1)c1c(Cl)c(=O)oc2c1ccc1occc12`, the TGI in test [1], in test [2], in [3], in [4], in test [5] and in test [6] was above 100 µM in each case. The TGI in test [7] was above 100 µM.
As for `C=CCc1cc(OC)c2c(c1)C(OC)CC(c1ccc(OC)c(OC)c1)O2` (configuration not stated), the TGI in test [1], in [2], in test [8], in test [3], in test [4] and in [5] was above 100 µM each time. Also, the TGI in test [6] and in test [7] was above 100 µM each time.
Turning to `CC1(C)C(=O)C(C)(C)C1=S`, the TGI in test [1], in [2], in test [8], in [3], in [4] and in [5] was above 100 µM throughout. Moreover, the TGI in test [6] and in test [7] was above 100 µM in each case.
In the case of `O=C(CC(Cl)=C(Cl)Cl)c1cccc(Cl)c1Cl`, the GI50 is 42.5 µM in test [9]; above 100 µM in test [10]; 42.6 µM in test [1]; 82.7 µM in test [2]; above 100 µM in test [8]; 47.8 µM in test [3]. For the same molecule, the results for the GI50 in test [4], in test [6] and in [7] were 46.3 µM, 75.4 µM and 28.2 µM, respectively. In addition, the TGI in [9], in test [10], in test [1], in test [2], in test [8] and in test [3] was above 100 µM each time. Moreover, the TGI in test [4], in test [6] and in test [7] was above 100 µM each time.
With `COc1cc(CCc2ccc(N)cc2)cc(OC)c1OC`, the TGI in test [1] was above 100 µM; in test [2], above 100 µM; in [8], 53.1 µM; in [3], above 100 µM; in test [4], above 100 µM; in test [5], above 100 µM. For the same molecule, the TGI in [6] and in test [7] was above 100 µM each time.
For the molecule `CCOC(=O)C1(C)CCCCC(=O)N1` (configuration not stated), the TGI in test [8], in test [3], in test [4], in test [5], in [6] and in test [7] was above 100 µM in each case.
`CC(=O)c1c(C)[nH]c(-c2nc3ccc(N4CCN(C)CC4)cc3[nH]2)c1-c1ccccc1`: the GI50 is 0.703 µM in [9]; 10.2 µM in [10]; 1.54 µM in test [1]; 0.52 µM in [8]; 0.719 µM in test [3]; 3.53 µM in test [4]. Also, the GI50 is 1.11 µM in [5], 0.437 µM in [6] and 0.604 µM in [7]. The TGI in [9] is 36.1 µM; in test [10] it was 47 µM; in test [1], 17.2 µM; in test [8] it was 17.3 µM; in test [3], 18.9 µM; in test [4] it was 72.6 µM. The results for the TGI in test [5], in test [6] and in test [7] were 15 µM, 18.5 µM and 27.2 µM, respectively.
For `c1ccc2c(c1)cc1n2CC2CN=NC12` (configuration not stated), the TGI in [1], in [2], in test [3], in [4], in [5] and in test [6] was above 100 µM each time.
Regarding `Nc1c(Cl)ncnc1NCCCNc1ncnc(Cl)c1N`, the TGI in test [1], in test [2], in [8], in test [3], in test [4] and in test [5] was above 100 µM in each case. Besides, the TGI in test [6] and in test [7] was above 100 µM each time.
`CC(SC(=O)Nc1ccc(N=Nc2ccccc2)cc1)C(=O)O` (configuration not stated): the TGI in [1], in test [2], in [8], in [3], in test [4] and in [5] was above 100 µM each time. Moreover, the TGI in test [6] and in [7] was above 100 µM each time.
Take `ClC(Cl)[Si]12OCCN(CCO1)CCO2`: the TGI in [1], in test [2], in [8], in test [4], in test [5] and in test [6] was above 100 µM in each case. In [7], this molecule showed a TGI above 100 µM.
For the molecule `CCOc1ccc(NC(=O)CC2C(=O)Nc3ccccc3S2(=O)=O)cc1` (configuration not stated), the TGI in [1], in test [2], in test [8], in test [3], in test [4] and in test [5] was above 100 µM each time. The TGI in [6] and in test [7] was above 100 µM throughout.
Take `CC(=O)NNc1nc(C)c(C(=O)NNC(=O)C(=O)Nc2ccc(Cl)cc2Cl)s1`: the TGI in [1] was above 100 µM; in [2] it was above 100 µM; in [8] it was above 100 µM; in [3] it was above 100 µM; in [4], 82.6 µM; in test [5], 50.5 µM. Also, the TGI in [6] and in [7] was above 100 µM throughout.
As to `CN1c2ccccc2N(C(=O)c2ccccc2)C(CC(=O)O)c2cccn21` (configuration not stated), the TGI in test [2], in test [8], in test [3], in test [4], in test [5] and in test [6] was above 100 µM throughout. The same molecule yielded a TGI in test [7] above 100 µM.
Take `Cc1c(/C=N/N(C)C)oc2c1cc(O)c1ncccc12`: the TGI in [1], in [2], in test [8], in test [3], in test [4] and in test [6] was above 100 µM each time. The molecule further returned a TGI in test [7] above 100 µM.
